Source: US8088753B2, “Heparin conjugates and methods” (Mediplex Corporation, Korea, priority 2007, dated 2012)

Tested on: SCC cells
Assay type: in vivo, C3H/HeN mice
Conditions: 5 mg/kg intraperitoneal twice weekly; Example 7, FIG. 8

bevacizumab: FDA-approved anti-angiogenic monoclonal antibody that binds the receptor binding domain of VEGF
tumor growth inhibition compared with the control: about 74%
